Consider 2 compounds from the NIST ThermoML archive (doi:10.1016/j.jct.2018.08.033).

Series [1] can be described thus: xn = mol fraction of the nth substance listed. The following applies: 100 kPa, Liquid, Vibrating tube method, x2 = 0.9938.
The conditions of series [2]: Liquid; for mass density: 100 kPa, Vibrating tube method; for speed of sound: 101.33 kPa, Single path-length method.

± gives the expanded uncertainty stated by the source.

Broadly, the mass density is the mass of a sample divided by its volume. With `CCCCOCCCN` [3-butoxy-1-propanamine] + O, the mass density in series [1] (283.15 K) amounted to 996.79 ± 1 kg/m3; in series [1] (288.15 K) it was 995.99 ± 1 kg/m3; in series [1] (293.15 K), 994.84 ± 1 kg/m3; in series [1] (298.15 K) it was 993.43 ± 0.99 kg/m3; in series [1] (303.15 K), 991.89 ± 0.99 kg/m3.
By speed of sound is commonly meant the propagation velocity of pressure waves in the medium. In the case of `OCCCO` [propan-1,3-diol], the mass density in series [2] (283.15 K) amounted to 1059.63 ± 1.4 kg/m3; in series [2] (288.15 K) it was 1056.47 ± 1.4 kg/m3; in series [2] (293.15 K), 1053.3 ± 1.4 kg/m3; in series [2] (298.15 K), 1050.14 ± 1.4 kg/m3; in series [2] (303.15 K), 1046.99 ± 1.4 kg/m3. Moreover, the speed of sound in series [2] (283.15 K) came to 1658.7 ± 2.4 m/s; in series [2] (288.15 K) it was 1647.2 ± 2.4 m/s; in series [2] (293.15 K), 1635.9 ± 2.4 m/s; in series [2] (298.15 K), 1624.6 ± 2.4 m/s; in series [2] (303.15 K), 1613.3 ± 2.4 m/s.
